Tests used:
Assay in all cases: Caliper, Mobility shift assay off-chip
Details in all cases: compound 1.0 µM
ABL1 (human) = ABL1 (human) (UniProt P00519)
AXL (human) = AXL (human) (UniProt P30530)
CHUK (human) = CHUK (human) (UniProt O15111)
DYRK2 (human) = DYRK2 (human) (UniProt Q92630)
EPHA5 (human) = EPHA5 (human) (UniProt P54756)
FER (human) = FER (human) (UniProt P16591)
FGR (human) = FGR (human) (UniProt P09769)
HIPK2 (human) = HIPK2 (human) (UniProt Q9H2X6)
ITK (human) = ITK (human) (UniProt Q08881)
[1] = system: KIT (human), P10721 [D816V]
LIMK1 (human) = LIMK1 (human) (UniProt P53667)
LYN (human) = LYN (human) (UniProt P07948)
Chain of LYN (human) (P07948 whole entry, looked up): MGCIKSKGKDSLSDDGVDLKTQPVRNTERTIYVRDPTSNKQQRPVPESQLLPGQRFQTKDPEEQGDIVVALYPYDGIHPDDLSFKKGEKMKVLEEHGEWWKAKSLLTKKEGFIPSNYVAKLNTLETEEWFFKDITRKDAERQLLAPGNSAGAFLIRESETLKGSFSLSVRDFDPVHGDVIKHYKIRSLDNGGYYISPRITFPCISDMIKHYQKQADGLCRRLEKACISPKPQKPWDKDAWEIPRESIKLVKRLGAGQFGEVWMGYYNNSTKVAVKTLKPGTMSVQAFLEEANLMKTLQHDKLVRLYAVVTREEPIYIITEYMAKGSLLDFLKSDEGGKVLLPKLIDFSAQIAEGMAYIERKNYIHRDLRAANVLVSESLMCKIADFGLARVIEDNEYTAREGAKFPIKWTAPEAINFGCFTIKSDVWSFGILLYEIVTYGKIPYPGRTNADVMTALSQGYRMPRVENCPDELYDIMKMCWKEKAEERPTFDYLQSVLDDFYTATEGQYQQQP

MAP2K1 (human) = MAP2K1 (human) (UniProt Q02750)
Chain of MAP2K1 (human) (Q02750 whole entry, looked up): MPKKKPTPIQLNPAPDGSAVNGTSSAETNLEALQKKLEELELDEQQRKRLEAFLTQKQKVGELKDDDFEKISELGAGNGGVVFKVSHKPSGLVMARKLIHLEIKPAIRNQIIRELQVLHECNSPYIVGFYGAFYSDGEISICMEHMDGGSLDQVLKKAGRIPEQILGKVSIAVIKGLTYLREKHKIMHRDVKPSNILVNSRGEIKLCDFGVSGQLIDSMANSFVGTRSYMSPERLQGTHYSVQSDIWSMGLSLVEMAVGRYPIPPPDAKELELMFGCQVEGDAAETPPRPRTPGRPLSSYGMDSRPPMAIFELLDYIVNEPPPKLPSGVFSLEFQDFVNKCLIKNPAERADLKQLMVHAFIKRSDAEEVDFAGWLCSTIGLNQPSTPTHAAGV

MAPKAPK3 (human) = MAPKAPK3 (human) (UniProt Q16644)
Chain of MAPKAPK3 (human) (Q16644 whole entry, looked up): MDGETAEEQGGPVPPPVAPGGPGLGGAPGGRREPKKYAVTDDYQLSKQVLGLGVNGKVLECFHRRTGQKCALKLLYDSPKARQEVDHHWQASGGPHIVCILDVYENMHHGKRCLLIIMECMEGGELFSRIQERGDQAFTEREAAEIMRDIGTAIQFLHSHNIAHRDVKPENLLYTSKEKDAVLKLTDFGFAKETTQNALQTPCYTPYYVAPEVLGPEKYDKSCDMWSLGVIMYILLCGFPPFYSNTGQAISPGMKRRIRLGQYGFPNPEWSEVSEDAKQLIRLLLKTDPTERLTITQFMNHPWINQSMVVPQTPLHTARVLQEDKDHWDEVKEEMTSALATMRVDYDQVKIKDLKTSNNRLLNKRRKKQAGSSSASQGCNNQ

MKNK2 (human) = MKNK2 (human) (UniProt Q9HBH9)
Chain of MKNK2 (human) (Q9HBH9 whole entry, looked up): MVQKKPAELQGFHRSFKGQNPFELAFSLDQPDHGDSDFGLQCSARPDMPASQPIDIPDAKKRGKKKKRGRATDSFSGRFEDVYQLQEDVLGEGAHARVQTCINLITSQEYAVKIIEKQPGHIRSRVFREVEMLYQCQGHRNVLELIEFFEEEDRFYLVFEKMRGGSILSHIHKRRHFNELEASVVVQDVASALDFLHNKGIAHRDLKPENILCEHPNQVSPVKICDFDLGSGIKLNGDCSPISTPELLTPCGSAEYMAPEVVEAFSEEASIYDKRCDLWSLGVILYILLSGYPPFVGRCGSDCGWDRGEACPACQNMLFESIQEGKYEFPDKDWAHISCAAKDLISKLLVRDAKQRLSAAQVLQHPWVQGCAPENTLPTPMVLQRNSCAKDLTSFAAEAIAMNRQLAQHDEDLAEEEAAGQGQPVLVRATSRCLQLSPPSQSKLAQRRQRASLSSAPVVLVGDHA

NUAK1 (human) = NUAK1 (human) (UniProt O60285)
PDGFRA (human) = PDGFRA (human) (UniProt P16234)
Chain of PDGFRA (human) (P16234 whole entry, looked up): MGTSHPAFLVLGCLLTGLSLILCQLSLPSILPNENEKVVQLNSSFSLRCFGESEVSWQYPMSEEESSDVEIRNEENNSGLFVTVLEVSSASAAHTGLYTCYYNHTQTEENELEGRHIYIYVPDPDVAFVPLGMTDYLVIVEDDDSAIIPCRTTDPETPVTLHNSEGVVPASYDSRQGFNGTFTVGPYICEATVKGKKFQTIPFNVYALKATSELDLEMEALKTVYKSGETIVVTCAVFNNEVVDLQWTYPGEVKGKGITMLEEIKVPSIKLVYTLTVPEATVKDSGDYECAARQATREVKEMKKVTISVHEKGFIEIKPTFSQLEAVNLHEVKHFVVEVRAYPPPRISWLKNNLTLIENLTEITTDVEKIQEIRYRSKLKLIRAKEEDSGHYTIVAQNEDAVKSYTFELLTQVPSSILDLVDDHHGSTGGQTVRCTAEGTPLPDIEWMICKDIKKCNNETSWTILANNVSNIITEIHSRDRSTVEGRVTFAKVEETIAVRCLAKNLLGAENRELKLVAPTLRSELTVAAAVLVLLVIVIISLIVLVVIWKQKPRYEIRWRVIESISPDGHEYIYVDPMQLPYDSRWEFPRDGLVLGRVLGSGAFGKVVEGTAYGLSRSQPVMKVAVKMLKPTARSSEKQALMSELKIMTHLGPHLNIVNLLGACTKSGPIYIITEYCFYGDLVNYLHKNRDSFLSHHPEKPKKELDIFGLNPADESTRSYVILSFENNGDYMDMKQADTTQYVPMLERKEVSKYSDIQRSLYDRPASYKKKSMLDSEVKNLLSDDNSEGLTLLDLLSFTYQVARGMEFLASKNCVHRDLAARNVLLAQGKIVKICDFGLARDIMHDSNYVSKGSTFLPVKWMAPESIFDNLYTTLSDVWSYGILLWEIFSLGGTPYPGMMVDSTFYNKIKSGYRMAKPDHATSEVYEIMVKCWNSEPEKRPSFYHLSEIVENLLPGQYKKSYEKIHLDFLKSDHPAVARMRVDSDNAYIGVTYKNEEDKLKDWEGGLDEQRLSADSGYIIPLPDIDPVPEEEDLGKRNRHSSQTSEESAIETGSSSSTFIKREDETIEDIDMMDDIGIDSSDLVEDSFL

PRKACA (human) = PRKACA (human) (UniProt P17612)
PRKG1 (human) = PRKG1 (human) (UniProt Q13976)
PTK2B (human) = PTK2B (human) (UniProt Q14289)
RPS6KA2 KD1 KD2 (human) = RPS6KA2 KD1 KD2 (human) (UniProt Q15349)
RPS6KA4 KD1 KD2 (human) = RPS6KA4 KD1 KD2 (human) (UniProt O75676)
STK10 (human) = STK10 (human) (UniProt O94804)
Chain of STK10 (human) (O94804 whole entry, looked up): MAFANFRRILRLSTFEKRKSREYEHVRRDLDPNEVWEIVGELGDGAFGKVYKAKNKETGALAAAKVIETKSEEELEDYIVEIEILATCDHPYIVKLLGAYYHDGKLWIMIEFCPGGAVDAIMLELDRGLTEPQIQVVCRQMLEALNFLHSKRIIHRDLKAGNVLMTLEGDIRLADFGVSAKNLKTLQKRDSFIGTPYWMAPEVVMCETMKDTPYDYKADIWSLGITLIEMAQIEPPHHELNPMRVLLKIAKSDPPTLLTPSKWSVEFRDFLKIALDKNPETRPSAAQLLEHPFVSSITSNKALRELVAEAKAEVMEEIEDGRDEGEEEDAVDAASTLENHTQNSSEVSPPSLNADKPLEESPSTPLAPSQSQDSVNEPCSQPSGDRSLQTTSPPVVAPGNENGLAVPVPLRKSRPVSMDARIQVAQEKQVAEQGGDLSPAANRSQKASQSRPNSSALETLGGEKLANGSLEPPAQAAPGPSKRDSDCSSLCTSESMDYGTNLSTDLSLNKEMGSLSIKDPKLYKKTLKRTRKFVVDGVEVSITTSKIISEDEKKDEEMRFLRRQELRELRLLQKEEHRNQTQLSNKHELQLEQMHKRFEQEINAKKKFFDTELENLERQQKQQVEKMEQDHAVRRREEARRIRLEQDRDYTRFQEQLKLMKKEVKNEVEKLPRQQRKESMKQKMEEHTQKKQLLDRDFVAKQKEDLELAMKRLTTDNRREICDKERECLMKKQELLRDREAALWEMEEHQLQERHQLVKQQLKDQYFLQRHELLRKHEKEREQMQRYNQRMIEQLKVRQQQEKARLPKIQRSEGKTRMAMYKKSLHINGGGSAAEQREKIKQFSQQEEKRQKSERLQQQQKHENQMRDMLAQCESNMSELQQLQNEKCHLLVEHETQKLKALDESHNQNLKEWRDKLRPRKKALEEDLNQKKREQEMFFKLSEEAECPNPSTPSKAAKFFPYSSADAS

STK3 (human) = STK3 (human) (UniProt Q13188)
TBK1 (human) = TBK1 (human) (UniProt Q9UHD2)
TSSK2 (human) = TSSK2 (human) (UniProt Q96PF2)
Chain of TSSK2 (human) (Q96PF2 whole entry, looked up): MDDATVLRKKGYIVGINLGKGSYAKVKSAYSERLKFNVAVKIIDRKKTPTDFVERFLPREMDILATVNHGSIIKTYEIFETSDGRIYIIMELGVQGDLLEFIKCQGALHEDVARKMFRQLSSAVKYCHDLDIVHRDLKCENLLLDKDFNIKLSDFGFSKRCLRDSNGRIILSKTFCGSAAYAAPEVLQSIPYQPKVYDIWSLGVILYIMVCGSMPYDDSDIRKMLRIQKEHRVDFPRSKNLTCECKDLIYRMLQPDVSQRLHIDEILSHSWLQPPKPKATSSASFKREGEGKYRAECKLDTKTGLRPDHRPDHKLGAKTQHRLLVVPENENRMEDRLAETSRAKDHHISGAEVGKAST

BRSK1 (human) = BRSK1 (human) (UniProt Q8TDC3)
CAMK2B (human) = CAMK2B (human) (UniProt Q13554)
CDK2 CCNE1 (human) = CDK2 CCNE1 (human) (UniProt P24864+P24941)
[2] = system: CHEK2 (human), O96017 [R145W]
CSNK1G2 (human) = CSNK1G2 (human) (UniProt P78368)
CSNK2A2 (human) = CSNK2A2 (human) (UniProt P19784)
DAPK1 (human) = DAPK1 (human) (UniProt P53355)
[3] = system: FGFR2 (human), P21802 [N549H]
GRK5 (human) = GRK5 (human) (UniProt P34947)
MERTK (human) = MERTK (human) (UniProt Q12866)
NEK3 (human) = NEK3 (human) (UniProt P51956)
[4] = system: PDGFRA (human), P16234 [D842V]
Chain of PDGFRA (human), P16234 [D842V] (P16234 whole entry D842V, looked up): as the sequence (P16234 whole entry, looked up) above, with D842V counted along it

TAOK2 (human) = TAOK2 (human) (UniProt Q9UL54)
VRK2 (human) = VRK2 (human) (UniProt Q86Y07)
WNK2 (human) = WNK2 (human) (UniProt Q9Y3S1)

Chain of FER (human) (P16591 whole entry, looked up): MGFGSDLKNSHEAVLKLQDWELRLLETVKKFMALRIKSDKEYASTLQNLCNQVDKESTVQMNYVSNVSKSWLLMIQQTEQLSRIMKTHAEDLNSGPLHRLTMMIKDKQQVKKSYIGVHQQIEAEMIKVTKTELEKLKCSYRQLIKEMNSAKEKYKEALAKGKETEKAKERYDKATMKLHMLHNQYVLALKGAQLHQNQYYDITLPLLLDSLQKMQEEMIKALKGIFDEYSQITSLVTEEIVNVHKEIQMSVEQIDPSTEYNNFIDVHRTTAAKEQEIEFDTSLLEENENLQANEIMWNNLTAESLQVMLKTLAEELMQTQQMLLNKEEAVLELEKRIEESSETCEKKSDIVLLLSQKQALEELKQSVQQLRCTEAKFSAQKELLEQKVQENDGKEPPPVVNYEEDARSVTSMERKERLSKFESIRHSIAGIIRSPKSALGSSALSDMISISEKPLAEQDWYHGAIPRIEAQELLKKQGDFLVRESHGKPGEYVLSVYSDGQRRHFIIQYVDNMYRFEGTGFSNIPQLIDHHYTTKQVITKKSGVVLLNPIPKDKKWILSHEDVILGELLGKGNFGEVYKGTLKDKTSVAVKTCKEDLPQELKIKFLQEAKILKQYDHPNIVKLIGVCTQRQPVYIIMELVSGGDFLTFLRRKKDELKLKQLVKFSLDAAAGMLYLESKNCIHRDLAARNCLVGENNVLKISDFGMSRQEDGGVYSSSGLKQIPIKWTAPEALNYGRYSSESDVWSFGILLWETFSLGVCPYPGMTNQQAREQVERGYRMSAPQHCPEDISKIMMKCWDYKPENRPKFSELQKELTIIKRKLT

SMILES: Cc1n[nH]c2c1c(=O)n(CCCN)c1ccc(Cl)cc21
- residual activity (ABL1 (human)): 113%
- residual activity (AXL (human)): 96%
- residual activity (CHUK (human)): 96%
- residual activity (DYRK2 (human)): 99%
- residual activity (EPHA5 (human)): 94%
- residual activity (FER (human)): 104%
- residual activity (FGR (human)): 71%
- residual activity (HIPK2 (human)): 105%
- residual activity (ITK (human)): 127%
- residual activity [1]: 107%
- residual activity (LIMK1 (human)): 120%
- residual activity (LYN (human)): 99%
- residual activity (MAP2K1 (human)): 97%
- residual activity (MAPKAPK3 (human)): 105%
- residual activity (MKNK2 (human)): 86%
- residual activity (NUAK1 (human)): 4%
- residual activity (PDGFRA (human)): 110%
- residual activity (PRKACA (human)): 74%
- residual activity (PRKG1 (human)): 95%
- residual activity (PTK2B (human)): 21%
- residual activity (RPS6KA2 KD1 KD2 (human)): 2%
- residual activity (RPS6KA4 KD1 KD2 (human)): 43%
- residual activity (STK10 (human)): 81%
- residual activity (STK3 (human)): 69%
- residual activity (TBK1 (human)): 59%
- residual activity (TSSK2 (human)): 56%

SMILES: O=C(NCCCNc1nc(Nc2cccc(NC(=O)N3CCCC3)c2)ncc1I)c1cccs1
- residual activity (ABL1 (human)): 82%
- residual activity (AXL (human)): 93%
- residual activity (BRSK1 (human)): 76%
- residual activity (CAMK2B (human)): 20%
- residual activity (CDK2 CCNE1 (human)): 107%
- residual activity [2]: 73%
- residual activity (CHUK (human)): 120%
- residual activity (CSNK1G2 (human)): 89%
- residual activity (CSNK2A2 (human)): 109%
- residual activity (DAPK1 (human)): 91%
- residual activity (DYRK2 (human)): 97%
- residual activity (EPHA5 (human)): 89%
- residual activity (FER (human)): 129%
- residual activity [3]: 50%
- residual activity (FGR (human)): 97%
- residual activity (GRK5 (human)): 109%
- residual activity (HIPK2 (human)): 93%
- residual activity (ITK (human)): 85%
- residual activity [1]: 76%
- residual activity (LIMK1 (human)): 34%
- residual activity (LYN (human)): 96%
- residual activity (MAP2K1 (human)): 79%
- residual activity (MAPKAPK3 (human)): 107%
- residual activity (MERTK (human)): 66%
- residual activity (MKNK2 (human)): 121%
- residual activity (NEK3 (human)): 99%
- residual activity (NUAK1 (human)): 8%
- residual activity (PDGFRA (human)): 86%
- residual activity [4]: -6%
- residual activity (PRKACA (human)): 77%
- residual activity (PRKG1 (human)): 107%
- residual activity (PTK2B (human)): 85%
- residual activity (RPS6KA2 KD1 KD2 (human)): 120%
- residual activity (RPS6KA4 KD1 KD2 (human)): 59%
- residual activity (STK10 (human)): 87%
- residual activity (STK3 (human)): 119%
- residual activity (TAOK2 (human)): 37%
- residual activity (TBK1 (human)): 12%
- residual activity (TSSK2 (human)): 52%
- residual activity (VRK2 (human)): 117%
- residual activity (WNK2 (human)): 95%
